In assay [1] the test system is rhinovirus type 64 (RV-64). The assay is described as follows: Tissue culture testing, rhinovirus type 64 in HeLa cells. Type of assay: cell-based. The note with it: Enterovirus, 48 and 72 hours, NA = not active at the standard test conditions, read-out: RV-64: lowest concentration of the compound necessary to cause a 50 percent reduction in cytopathic effect. The procedure, abridged: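 Pretreat HeLa monolayer with test compound (Eagle's/FCS); infect; include cell controls lacking virus; read lowest effective concentration in μg/ml.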

For the next assay, the system named is rhinovirus type 5 (RV-5). Description: Tissue culture testing, rhinovirus type 5 in HeLa cells. Type of assay: cell-based. The note with it: Enterovirus, 48 and 72 hours, NA = not active at the standard test conditions, read-out: RV-5: lowest concentration of the compound necessary to cause a 50 percent reduction in cytopathic effect. The protocol:
(§1) Monolayered HeLa cells in 16 millimeter (mm) tissue culture dishes were treated with 1 ml of culture medium (Eagles medium supplemented with fetal calf serum) containing subject compound at an appropriate concentration or containing no compound at all. Culture media such as those described herein are more fully described in standard texts, as for example, Kuchler's Biochemical Methods in Cell Culture and Virology, Dowden, Hutchinson and Ross, Inc., Stroudsberg, PA (1977). Following treatment, cells were challenged with 0.05 ml of rhinovirus type 1A (RV-1A), rhinovirus type 2 (RV-2) or Coxsackie A21 virus (Cox A21) in culture medium. Some of the compounds were also tested against rhinovirus type 5 (RV-5), rhinovirus type 8 (RV-8) or rhinovirus type 64 (RV-64). Cell controls received no viruses.
(§2) ^2 Lowest concentration of the compound (μg/ml) necessary to cause

The test system of another assay is Rhinovirus Type 39. The assay is described as follows: Inhibition of cytopathic effect in WI-38 cell culture tubes, rhinovirus type 39. It is filed as cell-based. The note with it: Enterovirus, WI-38 cells, read-out: Inhibition grade, Rhinovirus Type 39; for inhibition at 25 µg/mL: 25 μg/ml. On the procedure:
(§3) The test compound was dissolved in an appropriate solvent (generally dimethyl sulfoxide) and incubated at 56° C. for at least 15 minutes and this solution was then used to prepare various test solutions having the desired concentration of test compound in preheated WI maintenance medium (49% Eagles, 49% medium 199, 2% fetal calf serum and antibiotics).
(§4) Triplicate cell culture tubes (WI-38 human embryonic lung cell culture tubes) were fed with 1 ml of medium containing the compound at specified concentrations and inoculated with 3-300 TCID50 (3-300 times the tissue culture infective dose 50, i.e., the dose required to infect 50% of the cell cultures tested). Simultaneous viral titrations were performed. The tissue cultures were supplemented with fresh medium when necessary (around 3-4 days) until viral titrations were completed.
(§5) The cell culture tubes were examined dialy for cytopathic effect. […] Comparisons were made at that time with the percentage of cell sheet destruction in tubes containing virus compound mixtures. Observed differences of 75% or more were graded "+", 74-50% as "±", and less than 50% as "-" inhibition.

The subject of another assay is Cox A21. Description: Single Oral Dose test in mice challenged IP with Cox A21. It is filed as in vivo, Swiss male mice. The note with it: 600 mg/kg P.O. 3 h after IP challenge; >3.84 significant (95% confidence level). A digest of the protocol:
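Swiss male mice (8-12 g) infected IP with a lethal Cox A21 dose (80-100% mortality within 10 days), then given a single oral dose of compound in 0.5% Methocel 3 h later. Deaths recorded daily for 7-10 days; modified Mantel-Haenzel chi-square versus virus controls, >3.84 significant.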

Another assay has as its system Rhinovirus Type 17. Description: Inhibition of cytopathic effect in WI-38 cell culture tubes, rhinovirus type 17. It is filed as cell-based. The note with it: Enterovirus, WI-38 cells, read-out: Inhibition grade, Rhinovirus Type 17; for inhibition at 25 µg/mL: 25 μg/ml. On the procedure:
as §3, §4, §5

The test system of the next assay is Hanks Untyped. The assay is described as follows: Inhibition of cytopathic effect in WI-38 cell culture tubes, Hanks Untyped. It is filed as cell-based, rhinovirus. The note with it: Enterovirus, WI-38 cells, read-out: Inhibition grade, Hanks Untyped; for inhibition at 25 µg/mL: 25 μg/ml. On the procedure:
as §3, §4, §5

The test system of a further assay is Rhinovirus Type 10. Description: Inhibition of cytopathic effect in WI-38 cell culture tubes, rhinovirus type 10. Type of assay: cell-based. The note with it: Enterovirus, WI-38 cells, read-out: Inhibition grade, Rhinovirus Type 10; for inhibition at 25 µg/mL: 25 μg/ml. The protocol:
as §3, §4, §5
For orientation: Cytopathic effects are the visible damage that an infection or toxin causes in cultured cells.

A further assay concerns rhinovirus type 8 (RV-8). Description: Tissue culture testing, rhinovirus type 8 in HeLa cells. Type of assay: cell-based. The note with it: Enterovirus, 48 and 72 hours, NA = not active at the standard test conditions, read-out: RV-8: lowest concentration of the compound necessary to cause a 50 percent reduction in cytopathic effect. On the procedure:
as §1, §2

The test system of another assay is Rhinovirus Type 59. The assay is described as follows: Inhibition of cytopathic effect in WI-38 cell culture tubes, rhinovirus type 59. Type of assay: cell-based. The note with it: Enterovirus, WI-38 cells, read-out: Inhibition grade, Rhinovirus Type 59; for inhibition at 25 µg/mL: 25 μg/ml. The protocol:
as §3, §4, §5

The subject of assay [2] is 20 different rhinoviruses. The assay is described as follows: Summary of WI-38 tissue culture testing against 20 rhinoviruses. It is filed as cell-based. The note with it: 3.0 μg/ml. The protocol: as §3, §4, §5

Molecules are shown by their SMILES. Converted amounts (≈) assume the structure as drawn.

As a reminder, the inhibition is how much of the control response was suppressed.

In the case of `CS(=O)(=O)c1ccc(Oc2ccc(C(=O)c3ccccc3)cc2)nc1` [Example 31, (4-((5-(methylsulfonyl)-2-pyridinyl)oxy)phenyl)phenylmethanone], the values for the EC50 (in assay [1]; in the assay on rhinovirus type 5 (RV-5); in the assay with rhinovirus type 8 (RV-8)) were 2.5 µg/mL (≈ 7.07 µM), 6.25 µg/mL (≈ 17.7 µM) and 6.25 µg/mL (≈ 17.7 µM), respectively. Besides, the inhibition at 25 µg/mL with Rhinovirus Type 39 is < 50%; in the assay with Rhinovirus Type 17 it was ≥ 75%; with Hanks Untyped, ≥ 75%; in the assay with Rhinovirus Type 10, ≥ 75%; in the assay with Rhinovirus Type 59, ≥ 75%. Besides, in the assay on Cox A21, the “Single Oral Dose X^2 (chi-square, deaths vs virus control)” value amounted to 19.383.

For the compound `CCS(=O)(=O)c1ccc(Oc2ccc(Cl)cc2)nc1` [Example 42, 2-(4-chlorophenoxy)-5-(ethylsulfonyl)pyridine], the EC50 in assay [1] is ≤ 3.12 µg/mL; in the assay on rhinovirus type 8 (RV-8), ~50 µg/mL (≈ 168 µM). Also, the inhibition at 12.5 µg/mL in the assay with Rhinovirus Type 39 (12.5 μg/ml) was < 50%; in the assay with Rhinovirus Type 17 (12.5 μg/ml), ≥ 75%; with Hanks Untyped (12.5 μg/ml), ≥ 75%; with Rhinovirus Type 10 (12.5 μg/ml), 50 to 74%; in the assay on Rhinovirus Type 59 (12.5 μg/ml) it was ≥ 75%. In addition, the “Single Oral Dose X^2 (chi-square, deaths vs virus control)” value with Cox A21 was 46.453.

For the compound `CCS(=O)(=O)c1ccc(Oc2ccc(C(=O)c3ccccc3)cc2)nc1` [Example 43, (4-((5-(ethylsulfonyl)-2-pyridinyl)oxy)phenyl)phenylmethanone], the values for the EC50 (in assay [1]; in the assay on rhinovirus type 5 (RV-5); in the assay on rhinovirus type 8 (RV-8)) were 6.25 µg/mL (≈ 17 µM), 12.5 µg/mL (≈ 34 µM) and 25 µg/mL (≈ 68 µM), respectively. Moreover, the “inhibition of the multiplication of the majority of the 20 test rhinoviruses” value in [2] is recorded as “failed to inhibit the multiplication of the majority of the 20 test rhinoviruses”. In addition, the inhibition at 3 µg/mL with Rhinovirus Type 39 (3.0 μg/ml) was < 50%; in the assay with Rhinovirus Type 17 (3.0 μg/ml) it was ≥ 75%; in the assay with Hanks Untyped (3.0 μg/ml) it was 50 to 74%; in the assay with Rhinovirus Type 10 (3.0 μg/ml) it was < 50%; in the assay on Rhinovirus Type 59 (3.0 μg/ml) it was < 50%. Besides, the “Single Oral Dose X^2 (chi-square, deaths vs virus control)” value with Cox A21 is reported as 45.207.

For `CCS(=O)(=O)c1ccc(Oc2ccc(Cl)c(Cl)c2)nc1` [Example 47, 2-(3,4-dichlorophenoxy)-5-(ethylsulfonyl)pyridine], in [1], the EC50 was ≤ 0.312 µg/mL. Also, the inhibition at 25 µg/mL in the assay with Rhinovirus Type 39 was 50 to 74%; in the assay with Rhinovirus Type 17, ≥ 75%; in the assay with Hanks Untyped, ≥ 75%; with Rhinovirus Type 10 it was ≥ 75%; with Rhinovirus Type 59, 50 to 74%. Further, the “Single Oral Dose X^2 (chi-square, deaths vs virus control)” value with Cox A21 amounted to 25.587.
